Common to all, as to assay: DTP human tumour cell line panel, 48 h
The test system of test [1] is SF-268 CNS.
Test [2] concerns OVCAR-8 ovarian.
Test [3] has as its system SW-620 colon.
Test [4] deals with CCRF-CEM leukemia.
The test system of test [5] is 786-0 renal.
Test [6] concerns SR leukemia.
Test [7] relates to HS 578T breast.
In test [8] the test system is SF-539 CNS.
Test [9] relates to SK-OV-3 ovarian.
Test [10] concerns NCI-H226 lung.

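Exposure lasted 48 hours, with cells grown in 96-well plates and compounds tested at five concentrations. Here, GI50 denotes the concentration required for 50% inhibition of growth. At the TGI there is no net growth.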

In the case of `CC(=O)Oc1ccc2c(c1)CC[C@@H]1C2[C@@H](O[N+](=O)[O-])C[C@@]2(C)C1CC[C@@H]2O[N+](=O)[O-]` (stereo partly specified), the concentration for total growth inhibition (TGI) came to 29.7 µM in [1]; 33.4 µM in test [2]; 33.1 µM in test [3]; 38.8 µM in [4]; 28.4 µM in [5]; 27.7 µM in test [6]. The values for the TGI in test [7] and in test [8] were 47.7 µM and 35.9 µM, respectively.

`COc1c(-c2nc3nc(N4CCN(C)CC4)ccc3[nH]2)cc(OC)c2c1nc(COC(C)=O)n2C`: the TGI in test [9], in test [1], in test [2], in test [5], in [10] and in test [7] was more than 100 µM in each case.

`CC(=O)Nc1c(S(=O)(=O)c2ccccc2)c(C)c(C)n1Cc1ccccc1`: the TGI in test [9], in [1], in [2], in [3], in test [4] and in [5] was more than 100 µM throughout. Also, the TGI in test [10] and in test [7] was more than 100 µM each time.

For `C=C(C)COC1CCCCO1` (stereo unspecified), the TGI in test [9], in test [1], in test [2], in test [3], in test [4] and in test [5] was more than 100 µM in each case. Moreover, the TGI in test [10], in [7] and in test [8] was more than 100 µM each time.

In the case of `Cc1oc2c(c1C)S(=O)(=O)C(C#N)=C(N(C)C)N2`, the TGI in [9], in [1], in [2], in [3], in [5] and in test [10] was more than 100 µM each time. The TGI in test [7] and in test [8] was more than 100 µM throughout.

Regarding `COc1ccc(C2C(C#N)=C(S)N(C3OC(COC(C)=O)C(OC(C)=O)C(OC(C)=O)C3OC(C)=O)C(c3ccccc3)=C2C(C)=O)cc1` (stereo unspecified), the TGI in test [1], in test [2], in [4], in [5], in test [10] and in test [7] was more than 100 µM in each case. The TGI in [8] was more than 100 µM.

Turning to `O=C(/C=C(\S/C=C(/c1ccccc1)N1CCn2c(C(=O)c3ccccc3)c(C(=O)c3ccccc3)c(C(=O)c3ccccc3)c21)C(=O)c1ccccc1)c1ccccc1`, the concentration for total growth inhibition (TGI) in test [9], in test [1], in test [2], in test [3], in test [4] and in test [5] was more than 10 µM each time. Moreover, the TGI in [7] and in [8] was more than 10 µM in each case.

In the case of `O=C(/C=C/c1cccc(Oc2ccccc2)c1)NCc1ccc(C(=O)NCCc2ccccc2)cc1`, the concentration for total growth inhibition (TGI) in test [9], in [1], in test [2], in [3], in test [5] and in test [6] was more than 100 µM each time. Also, the concentration for total growth inhibition (TGI) in test [10], in test [7] and in [8] was more than 100 µM each time.

For `NC1=Nc2cc(Cl)ccc2Sc2nc3ccccc3n21`, the total growth inhibition concentration (TGI) in test [9] is more than 100 µM; in [1], more than 100 µM; in [2] it was more than 100 µM; in test [3], more than 100 µM; in test [4], 19.4 µM; in [5] it was more than 100 µM. Besides, the TGI in test [10], in test [7] and in test [8] was more than 100 µM each time.

For `Nc1nc(Cl)cc(NC2(CO)CCC2)n1`, the TGI in test [1], in [2], in test [3], in test [4], in [5] and in test [6] was more than 100 µM each time. Further, the concentration for total growth inhibition (TGI) in test [10], in test [7] and in test [8] was more than 100 µM throughout.

Regarding `Cc1csc2c1-n1cccc1C2=O`, the TGI in test [9], in test [1], in [2], in test [3], in test [4] and in [5] was more than 100 µM throughout. In addition, the TGI in [6], in [10] and in [7] was more than 100 µM each time.

Regarding `CC1CC/C(=C\c2ccc(F)cc2)C(=O)/C1=C/c1ccc(F)cc1` (stereo unspecified), the TGI in test [9] was found to be 36.7 µM; in test [1], 14.6 µM; in test [2] it was 9.14 µM; in test [3], 87.6 µM; in test [4], 14.5 µM; in test [5] it was 8.42 µM. In addition, the TGI in test [10] stood at 24.1 µM; in test [7], 31.4 µM; in test [8], 9.15 µM.

For the compound `Cc1c(N=Nc2ccccc2)c(C)n(C2OC(CO)C(O)C(O)C2O)c(=S)c1C#N` (stereo unspecified), the total growth inhibition concentration (TGI) was more than 100 µM in test [9]; more than 100 µM in test [1]; more than 100 µM in [3]; more than 100 µM in test [4]; more than 100 µM in test [5]; 87.7 µM in test [6]. Further, the figures for the TGI in [7] and in test [8] were more than 100 µM and 57.8 µM, respectively.

Consider `COc1cc2c(c(O)c1OC)CC1CCC(=O)N1C2c1cccc2ccccc12` (stereo unspecified), for which the total growth inhibition concentration (TGI) is more than 100 µM in test [9]; 78.7 µM in test [1]; more than 100 µM in [2]; 73 µM in test [3]; more than 100 µM in test [4]; 94.5 µM in test [5]. Also, the concentration for total growth inhibition (TGI) in test [6] is more than 100 µM; in test [7], 69.3 µM; in [8], 30.6 µM.

For `CCOC(=O)c1nc2ccc(C(F)(F)F)cc2nc1Nc1ccc(Cl)c(Cl)c1`, the TGI in test [9], in [1], in test [2], in [3], in test [4] and in test [5] was more than 100 µM throughout. Moreover, the total growth inhibition concentration (TGI) in test [6], in test [7] and in [8] was more than 100 µM each time.

Take `Cn1ncc2c(Cl)ncnc21`: the TGI in test [9], in test [1], in test [2], in [3], in test [5] and in [6] was more than 100 µM in each case. The concentration for total growth inhibition (TGI) in test [10], in test [7] and in [8] was more than 100 µM each time.

With `O=c1ccn(C2OC(CO)C(O)C2F)c(=O)n1Cc1ccccc1` (stereo unspecified), the TGI in [1], in [2], in test [3], in [4], in [5] and in test [6] was more than 100 µM in each case. Besides, the TGI in test [10], in [7] and in [8] was more than 100 µM throughout.

Regarding `NNC(=S)NCCNC(=S)NN`, the total growth inhibition concentration (TGI) in test [9], in [1], in [3], in [4], in test [5] and in test [6] was more than 100 µM each time. In [7], the TGI is more than 100 µM.

`CC(=O)Oc1c(-c2ccccc2)sc2ccccc12`: the TGI was 71.2 µM in test [1]; more than 100 µM in test [2]; more than 100 µM in test [3]; 37 µM in [4]; 28.9 µM in test [5]; 29.4 µM in test [6]. For the same compound, the concentration for total growth inhibition (TGI) in [10] is 28.8 µM; in test [7], 40.6 µM; in [8], 46.8 µM.

Consider `O=C(N/N=C\c1ccc(N(CCCl)CCCl)cc1[N+](=O)[O-])c1cccnc1`, for which the GI50 in test [1], in test [2], in test [3], in [4], in test [6] and in test [10] was more than 100 µM throughout. In addition, the GI50 in test [7] and in test [8] was more than 100 µM throughout. In addition, the TGI in [1], in test [2], in [3], in test [4], in test [6] and in test [10] was more than 100 µM in each case. Also, the TGI in test [7] and in [8] was more than 100 µM throughout.

In the case of `Clc1ccc(-c2cn3c(nc4ccccc43)c(/C=C/c3ccco3)n2)cc1`, the concentration for total growth inhibition (TGI) in [9] is more than 100 µM; in [1], more than 100 µM; in test [3], more than 100 µM; in test [5], more than 100 µM; in test [6] it was 41.4 µM; in test [10], more than 100 µM. The values for the concentration for total growth inhibition (TGI) in test [7] and in [8] were 61.8 µM and more than 100 µM, respectively.

Regarding `O=C(CCC=C(S(=O)(=O)c1ccccc1)S(=O)(=O)c1ccccc1)c1ccccc1`, the TGI in test [9] is more than 100 µM; in [1] it was 18.8 µM; in test [2], 16.7 µM; in test [3], 15 µM; in test [5] it was 11.8 µM; in test [6] it was 82.6 µM. Besides, the TGI turned out to be 37.3 µM in [10], 31 µM in test [7] and 6.57 µM in test [8].

`NC(CSSCC(N)=NCC12CC3CC(CC(C3)C1)C2)=NCC12CC3CC(CC(C3)C1)C2`: the TGI in [9] was 36.5 µM; in test [1], more than 100 µM; in [2] it was 51.4 µM; in test [3], 41.6 µM; in test [5] it was more than 100 µM; in test [10], 43.3 µM. In addition, the TGI stood at 50.7 µM in test [7] and 34.3 µM in test [8].

Take `CCOC(=O)/C(=C/c1ccc(C(=O)OC)cc1)N(CC)CC`: the total growth inhibition concentration (TGI) in [9] was more than 100 µM; in test [1] it was more than 100 µM; in test [2], more than 100 µM; in test [3], more than 100 µM; in test [4], 93.7 µM; in test [5] it was more than 100 µM. Moreover, the total growth inhibition concentration (TGI) is more than 100 µM in test [6], 79 µM in test [10] and 60.1 µM in [8].

Regarding `O=C(CSc1nc(-c2ccccc2)c(-c2ccccc2)[nH]1)N/N=C/c1ccc(O)cc1`, the TGI is 65.2 µM in [9]; 88.5 µM in test [1]; 48 µM in test [2]; more than 100 µM in [3]; more than 100 µM in test [4]; 54.8 µM in test [5]. Besides, the TGI in [6] was more than 100 µM; in test [10], 82 µM; in test [8] it was 40.5 µM.

As to `C/C=C1\CN(C(=O)OC(C)(C)C)C1C(=O)OC(C)(C)C` (stereo unspecified), the TGI in test [9], in test [1], in [2], in test [3], in [4] and in [5] was more than 100 µM throughout. The total growth inhibition concentration (TGI) in test [6], in test [7] and in [8] was more than 100 µM each time.

In the case of `N=c1c2c(=S)n(-c3ccccc3)c(=S)n(-c3ccccc3)c2nc(SCCN2CCCC2)n1-c1ccccc1`, the TGI in [9] was found to be 25.3 µM; in [1] it was 5.69 µM; in [2], 4.2 µM; in [4], 1.25 µM; in test [5] it was 2 µM; in test [10] it was 18.4 µM. Moreover, the figures for the TGI in [7] and in [8] were more than 100 µM and 9.71 µM, respectively.

On to `COC(=O)c1c(C#N)c(N)nc2c1CCC2`, for which the concentration for total growth inhibition (TGI) in test [9], in test [1], in test [2], in test [3], in test [4] and in test [5] was more than 100 µM throughout. For the same compound, the concentration for total growth inhibition (TGI) in [10] and in [7] was more than 100 µM each time.

On to `Cc1ccc(C(=O)Nc2ccc(CP(=O)(O)O)cc2CP(=O)(O)O)cc1NC(=O)Nc1cc(C(=O)Nc2ccc(CP(=O)(O)O)cc2CP(=O)(O)O)ccc1C`, for which the TGI in test [9], in [1], in test [2], in test [3], in test [4] and in test [5] was more than 100 µM throughout. The TGI in test [10], in [7] and in test [8] was more than 100 µM in each case.

For `CCOC(=O)C(Cc1c[nH]c2cc([N+](=O)[O-])ccc12)NS(=O)(=O)c1ccc2ccccc2c1` (stereo unspecified), the TGI worked out at 68.6 µM in test [9]; 43.5 µM in test [1]; 55.7 µM in [2]; 44.4 µM in test [3]; 49.1 µM in [4]; 76.1 µM in test [5]. Moreover, the TGI in test [6] stood at 68.2 µM; in [10], 48.2 µM; in [8], 32.9 µM.

The term TGI denotes the concentration giving total growth inhibition. A high value points to lower sensitivity of the cells. What is called GI50 is the concentration at which growth is held to half of that of the control.
